Experiments:
AD5-10 [1] = experiment: Oriented Peptide Array Library: binding of peptides to AD5-10; parameters: species or system mouse; conditions: for binding capabilities to AD5-10 (antigenicity): AD5-10 2 μg/ml
Text: A series of the derivative peptides comprising the core peptide (as shown in Tab. 1 and 2) were synthesized according to the amino acid sequence of human DR5 (NCBI Acc #: NP_671716.1) provided in NCBI protein database. Subsequently, the peptide arrays as said above were spotted on nitrocellulose membranes using an ASP222 SPOT robot workstation (one dot corresponds to one polypeptide of which the concentration is about 5 nmol), the homogenicity of the protein amount was detected with ninhydrin staining before the corresponding detection. The membrane was blocked with 3% BSA in TBS-T solution for 1 h at room temperature and followed by incubation with corresponding specific primary antibodies (the final concentration is 2 μg/ml) at 4° C. over night. The array membrane was then incubated with HRP-conjugated goat anti-mouse polyclonal antibodies for 2 h at room temperature and then chromogenic substrate ECL was added to develop the membrane.

AD5-10 [2] = experiment: Synthetic peptides binding AD5-10 and blocking its tumoricidal activity on Jurkat cells; format: cell-based, mouse
Description: (§1) The human lymphocyte leukemia Jurkat cells in exponential phase were seeded in the 96-well plate at the density of 2×10^4/well. Then synthetic peptides were sufficiently mixed with AD5-10 according to corresponding concentrations and incubated at 37° C. for 1 h. The mixture was then added to the culture wells containing the tumor cells. CCK-8 agent (Dojindo Laboratories, Kumamoto, Japan) was used and the OD values (wavelength […]) were detected 2 h after the reaction. The OD value of the wells having no cells was set to be “0”, the Relative cell viability=OD value of treated well/OD value of untreated sample×100%.

[3] = tested on: human colon cancer cells HCT116; experiment: Tumoricidal activity to human colon cancer cells HCT116 (microscopy, CCK-8); format: cell-based
Description: HCT116 cells were treated with TRAIL, AD5-10 and monoclonal antibodies Adie-1 and Adie-2 of different concentrations. […] The OD value of the wells having no cells was set to be “0”, the Relative cell viability=OD value of treated well/OD value of untreated sample×100%.

[4] = tested on: human T lymphocyte leukemia Jurkat cells; experiment: Cell viability of Jurkat cells (CCK-8); format: cell-based; conditions: different concentrations, 8 hours
Description: as §1

[5] = peptide at different concentrations

“QDLAP (Antigenic determinants recognized by the mouse anti-human death receptor DR5 monoclonal antibody AD5-10)” was tested, and the “epitope recognized by AD5-10” value (AD5-10 [1]) was “shortest amino acid sequence of the epitope recognized by AD5-10”.

For “mutant epitope 1: synthetic peptide of wild-type epitope 1 with the key amino acid residues mutated (AQITQQDAAPQQRA; mutant epitope 1)”, the “binding to AD5-10 and blocking of its cytotoxicity” value (from here on “binding to AD5-10 and blocking”) (AD5-10 [2]; peptide 10 μM) was “cannot bind to AD5-10”.

“AQITQQDLAPQQRA (wild type epitope 1) [wild-type epitope 1]” was tested, and the “binding to AD5-10 and blocking” value (AD5-10 [2]; peptide 10 μM) was “can bind to AD5-10 and block its cytotoxicity” and the “binding to AD5-10 and blocking” value (AD5-10 [2]; [5]) was “can bind to AD5-10 and block its cytotoxicity”.

With “AITQQDLAPQQRA (wild type epitope 2) [wild-type epitope 2]” the “binding to AD5-10 and blocking” value (AD5-10 [2]; peptide 10 μM) was “can bind to AD5-10 and block its cytotoxicity” and the “binding to AD5-10 and blocking” value (AD5-10 [2]; [5]) was “can bind to AD5-10 and block its cytotoxicity”.

For “ITQQDLAPQQRA (Extended sequence of SEQ ID NO. 1 which extends from the N-terminal of the said amino acid sequence to the C-terminal of the amino acid sequence in accordance with the amino acid sequence of DR5)”, the “binding capabilities to AD5-10 (antigenicity)” value (AD5-10 [1]) was “the strongest”.

In the case of “ALITQQDLAPQQ (Extended sequence of SEQ ID NO. 1 which extends from the N-terminal of the said amino acid sequence to the C-terminal of the amino acid sequence in accordance with the amino acid sequence of DR5)”, the “binding capabilities to AD5-10 (antigenicity)” value (AD5-10 [1]) is reported as “the strongest”.

For “mutant epitope 2: synthetic peptide of wild-type epitope 2 with the key amino acid residues mutated (AITQQDAAPQQRA; mutant epitope 2)”, the “binding to AD5-10 and blocking” value (AD5-10 [2]; peptide 10 μM) was “cannot bind to AD5-10”.

With “TRAIL: tumor necrosis factor-related apoptosis inducing ligand, natural ligand for death receptors DR4 and DR5” the “morphological changes and cell death characteristics of HCT116 cells observed under microscope” value ([3]; 500 ng/ml, 8 h) was “Apparent morphological changes and cell death characteristics”, the “cell viability of HCT116 cells” value ([3]; different concentrations, CCK-8) was “notably reduced with the increase of the treatment concentrations” and the “cell viability of Jurkat cells” value [4] was “can inhibit the cell viability of human T lymphocyte leukemia Jurkat cells in a dose-dependent manner”.
